Test results taken from the NIST ThermoML archive (doi:10.1016/j.fluid.2012.08.005).
Numbers after ± are expanded uncertainties.

Experiment: xn = mol fraction of the nth substance listed
Conditions: 101 kPa, Liquid, Vibrating tube method

Q: Which mass density (293.15 K, x2 = 0) does the source give for Cc1ccccc1 [toluene] + c1ccoc1 here?
A: 868.2 ± 0.1 kg/m3

Q: And the mass density (298.15 K, x2 = 0)?
A: 864.5 ± 0.1 kg/m3

Q: And the mass density (303.15 K, x2 = 0)?
A: 861 ± 0.1 kg/m3

Q: Which mass density (293.15 K, x2 = 0) does the source give for CCCCCC [hexane] + c1ccoc1 here?
A: 660.8 ± 0.3 kg/m3

Q: And the mass density (298.15 K, x2 = 0)?
A: 657 ± 0.3 kg/m3

Q: And the mass density (303.15 K, x2 = 0)?
A: 653.3 ± 0.3 kg/m3

Q: What does the source list for c1ccoc1 [furan] + Cc1ccccc1?
A: mass density (293.15 K, x1 = 0.1): 873.3 ± 0.1 kg/m3; mass density (293.15 K, x1 = 0.199): 878.9 ± 0.1 kg/m3; mass density (293.15 K, x1 = 0.387): 889.8 ± 0.1 kg/m3; mass density (293.15 K, x1 = 0.507): 897.7 ± 0.1 kg/m3; mass density (293.15 K, x1 = 0.591): 903.8 ± 0.2 kg/m3; mass density (293.15 K, x1 = 0.761): 917.5 ± 0.2 kg/m3; mass density (293.15 K, x1 = 0.89): 929.2 ± 0.2 kg/m3; mass density (293.15 K, x1 = 1): 939.8 ± 0.2 kg/m3; mass density (298.15 K, x1 = 0.1): 869.5 ± 0.1 kg/m3; mass density (298.15 K, x1 = 0.199): 875 ± 0.1 kg/m3; mass density (298.15 K, x1 = 0.387): 885.6 ± 0.1 kg/m3; mass density (298.15 K, x1 = 0.507): 893.2 ± 0.1 kg/m3; mass density (298.15 K, x1 = 0.591): 899.1 ± 0.2 kg/m3; mass density (298.15 K, x1 = 0.761): 912.4 ± 0.2 kg/m3; mass density (298.15 K, x1 = 0.89): 923.7 ± 0.2 kg/m3; mass density (298.15 K, x1 = 1): 934 ± 0.2 kg/m3; mass density (303.15 K, x1 = 0.1): 865.9 ± 0.1 kg/m3; mass density (303.15 K, x1 = 0.199): 871.2 ± 0.1 kg/m3; mass density (303.15 K, x1 = 0.387): 881.5 ± 0.1 kg/m3; mass density (303.15 K, x1 = 0.507): 888.9 ± 0.1 kg/m3; mass density (303.15 K, x1 = 0.591): 894.6 ± 0.2 kg/m3; mass density (303.15 K, x1 = 0.761): 907.5 ± 0.2 kg/m3; mass density (303.15 K, x1 = 0.89): 918.4 ± 0.2 kg/m3; mass density (303.15 K, x1 = 1): 928.3 ± 0.2 kg/m3

Q: Which results are given for c1ccoc1 [furan] + CCCCCC?
A: mass density (293.15 K, x1 = 0.12): 677.8 ± 0.3 kg/m3; mass density (293.15 K, x1 = 0.199): 690.2 ± 0.3 kg/m3; mass density (293.15 K, x1 = 0.365): 721.4 ± 0.3 kg/m3; mass density (293.15 K, x1 = 0.511): 755.2 ± 0.3 kg/m3; mass density (293.15 K, x1 = 0.623): 786.2 ± 0.3 kg/m3; mass density (293.15 K, x1 = 0.786): 841.2 ± 0.3 kg/m3; mass density (293.15 K, x1 = 0.908): 891.9 ± 0.2 kg/m3; mass density (293.15 K, x1 = 1): 939.8 ± 0.2 kg/m3; mass density (298.15 K, x1 = 0.12): 673.9 ± 0.3 kg/m3; mass density (298.15 K, x1 = 0.199): 686.1 ± 0.3 kg/m3; mass density (298.15 K, x1 = 0.365): 717 ± 0.3 kg/m3; mass density (298.15 K, x1 = 0.511): 750.5 ± 0.3 kg/m3; mass density (298.15 K, x1 = 0.623): 781.4 ± 0.3 kg/m3; mass density (298.15 K, x1 = 0.786): 835.9 ± 0.3 kg/m3; mass density (298.15 K, x1 = 0.908): 886.4 ± 0.2 kg/m3; mass density (298.15 K, x1 = 1): 934 ± 0.2 kg/m3; mass density (303.15 K, x1 = 0.12): 670 ± 0.3 kg/m3; mass density (303.15 K, x1 = 0.199): 682.2 ± 0.3 kg/m3; mass density (303.15 K, x1 = 0.365): 712.8 ± 0.3 kg/m3; mass density (303.15 K, x1 = 0.511): 746 ± 0.3 kg/m3; mass density (303.15 K, x1 = 0.623): 776.6 ± 0.3 kg/m3; mass density (303.15 K, x1 = 0.786): 830.8 ± 0.3 kg/m3; mass density (303.15 K, x1 = 0.908): 881 ± 0.2 kg/m3; mass density (303.15 K, x1 = 1): 928.3 ± 0.2 kg/m3
